Assay [1] deals with CD62P on platelets. Description: Platelet stimulation, CD62P expression by MLSC. The assay is classed as cell-based, human. The method, then: Platelet stimulation. Thrombin stimulation was carried out on either washed platelets or 1:10 diluted whole blood in the presence of the fibrinogen cascade inhibitor peptide glycine-proline-arginine-proline (GPRP, 2 mM final concentration). Thrombin (5 U/ml) was added to 10 μl of sample in 75 μl Tyrode's buffer containing the GPRP (final total volume of 100 μl). Because the CTAD tubes contain reversible inhibitors of platelet activation, it was initially determined that a 10-fold dilution of the whole blood was sufficient to reduce the inhibitors below effective concentration and permit stimulation. […] Next, the reaction was incubated in a 37° C. water bath for 5 or 10 minutes and subsequently diluted to 1000 μl […] with Tyrode's buffer supplemented with 1.5 mM theophylline and 0.37 mM adenosine (final concentration). […]
Staining for MLSC. […] Twenty-one microliters of diluted sample was loaded into Flex32 capillary array and analyzed by Surroscan MLSC. […] Images were converted to flow cytometry standard (fcs) format with in-house software and analyzed with FlowJo™ cytometry analysis software (Tree Star, Inc., San Carlos, Calif.). Fluorescence intensities are compensated for spectral overlap of the dyes. […]

The subject of assay [2] is CD62P on platelets. Nature of the assay: CD62P activation marker on platelets in unfixed whole blood drawn into EDTA or CTAD tubes, MLSC. The class given is cell-based, human. Conditions: for Mean Intensity CD62P: mean relative intensity, entire platelet population. Here is the method: (§1) Staining for MLSC. For whole blood platelet stains, 10 μl of whole blood was diluted into 990 μl of Tyrode's buffer supplemented with 1.5 mM theophylline and 0.37 mM adenosine for a final dilution of 1:100. Twenty microliters of diluted whole blood, thrombin-stimulated samples, or control samples were added to 96 well micro-titer plates containing 5 μl of the appropriate reagent cocktail. The cells were incubated in the dark at room temperature for 20 minutes. At the end of the incubation, 50 μl of modified PBS/BSA buffer supplemented with theophylline (1.5 mM)/adenosine (0.37 mM) (to prevent activation), and Zwittergent (50 mM) was added to all the wells and mixed thoroughly. Twenty-one microliters of diluted sample was loaded into Flex32 capillary array and analyzed by Surroscan MLSC. The assays are performed in homogeneous mode, without removal of unbound reagent. After all dilutions, the fluorescent platelet counts per capillary are about 1,000-2,000, comfortably in the range of 10 to 12,000 that is appropriate for the cytometry. This platelet count level provides appropriate counting statistics and avoids coincident events. Images were converted to flow cytometry standard (fcs) format with in-house software and analyzed with FlowJo™ cytometry analysis software (Tree Star, Inc., San Carlos, Calif.). Fluorescence intensities are compensated for spectral overlap of the dyes.
(§2) Previous research has shown that addition of platelet inhibitors to the anti-coagulant greatly reduces the activation state of human platelets prior to testing. Kuhne et al., Am. J. Hematol. 50:40-5 (1995); Mody et al., Transfus.Med. 9:147-54 (1999). […] Blood was obtained from a volunteer (set of 5 volunteers) and processed within 4 hours. This was done without fixation in order to maintain epitope integrity and allow for further activation studies. The samples were incubated with antibodies against platelet surface activation markers CD62P and CD63, as well as antibodies against GPIIIA, an antigen present on all platelets. All platelets were identified with GPIIIa (Cy5.5). The sample was then analyzed using MLSC. Gates for the Cy5-CD62P and Cy5-CD63 positive events were drawn based upon MOPC-21 control antibody staining.

Assay [3] concerns CD63 on platelets. Nature of the assay: CD63 activation marker on platelets in unfixed whole blood drawn into EDTA or CTAD tubes, MLSC. The conditions noted are these: for Mean Intensity CD63: mean relative intensity, entire platelet population. The assay is classed as cell-based, human. Here is the method: as §1, §2
Assay [4] deals with platelets. Description: Pan platelet surface antigen expression (CD9, GPIIIA, GPIIB), EDTA versus CTAD samples, MLSC. The class given is cell-based, human. Here is the method:
as §1, with “After all dilutions, the fluorescent platelet counts per capillary are about 1,000-2,000, comfortably in the range of 10 to 12,000 that is appropriate for the cytometry. This platelet count level provides appropriate counting statistics and avoids coincident events.” left out
(§3) Previous research has shown that addition of platelet inhibitors to the anti-coagulant greatly reduces the activation state of human platelets prior to testing. […] The sample was then analyzed using MLSC. […]

Assay [5] deals with platelets. Description: Total platelet count in EDTA and CTAD tubes, MLSC. The class given is cell-based, human. The conditions noted are these: in the tubes. Here is the method:
as §1, with “After all dilutions, the fluorescent platelet counts per capillary are about 1,000-2,000, comfortably in the range of 10 to 12,000 that is appropriate for the cytometry. This platelet count level provides appropriate counting statistics and avoids coincident events.” left out
as §3

The next assay deals with platelet factor 4 (PF4). Nature of the assay: Platelet factor 4 in plasma by chemiluminescent ELISA. The arrangement: species or system human. For orientation: In an ELISA, binding on a coated surface is turned into a signal by an enzyme label.
Assay [6] relates to CD63 on platelets. Description: Platelet stimulation, CD63 expression by MLSC. The assay is classed as cell-based, human. Here is the method:
Platelet stimulation. Thrombin stimulation was carried out on either washed platelets or 1:10 diluted whole blood in the presence of the fibrinogen cascade inhibitor peptide glycine-proline-arginine-proline (GPRP, 2 mM final concentration). Thrombin (5 U/ml) was added to 10 μl of sample in 75 μl Tyrode's buffer containing the GPRP (final total volume of 100 μl). Because the CTAD tubes contain reversible inhibitors of platelet activation, it was initially determined that a 10-fold dilution of the whole blood was sufficient to reduce the inhibitors below effective concentration and permit stimulation. […] Next, the reaction was incubated in a 37° C. water bath for 5 or 10 minutes and subsequently diluted to 1000 μl […] with Tyrode's buffer supplemented with 1.5 mM theophylline and 0.37 mM adenosine (final concentration). In order to stop the stimulation and prevent non-specific activation of the control and test samples caused by the handling and staining techniques, theophylline and adenosine were added to the samples. A control sample lacking only the thrombin was run in parallel.
Staining for MLSC. For whole blood platelet stains, 10 μl of whole blood was diluted into 990 μl of Tyrode's buffer supplemented with 1.5 mM theophylline and 0.37 mM adenosine for a final dilution of 1:100. Twenty microliters of diluted whole blood, thrombin-stimulated samples, or control samples were added to 96 well micro-titer plates containing 5 μl of the appropriate reagent cocktail. The cells were incubated in the dark at room temperature for 20 minutes. […] Twenty-one microliters of diluted sample was loaded into Flex32 capillary array and analyzed by Surroscan MLSC. […] Images were converted to flow cytometry standard (fcs) format with in-house software and analyzed with FlowJo™ cytometry analysis software (Tree Star, Inc., San Carlos, Calif.). Fluorescence intensities are compensated for spectral overlap of the dyes. […]

Assay [7] deals with CD62P on platelets. Conditions: thrombin; expected value; cited from earlier work.
Assay [8] concerns CD63 on platelets. Conditions: thrombin; expected value; cited from earlier work.
[9] abbreviates: 24 hr from draw, average of 4 measurements.
[10] abbreviates: 48 hr from draw, average of 5 subjects.
Where [11] appears, read: thrombin 5 U/ml, 5 minute activation, whole blood 1:10 with GPRP, average of 19 to 22 subjects.

Description for platelet factor 4 (PF4): Platelet Factor 4 was measured by chemiluminescent using ELISA. Antibodies were obtained from U.S. Biologicals (Swampscott, Mass.) and Affinity Biologicals Enzyme Research Lab. (Southbend, Ind.), recombinant standard from Chemicon (Temecula, Calif.). Briefly, Corning black opaque 96 well microtiter plates were coated with rabbit polyclonal anti-PF4 (human) overnight at 4° C. Plates were washed and samples or standards were added to the wells and allowed to incubate at room temperature. After washing, biotinylated polyclonal sheep anti-PF4 (human) was added followed by washing and the addition of avidin-alkaline Phosphatase. Plates were washed and the CDP-Star R (Tropix, Bedford, Mass.)) substrate added, allowed to develop and read on the Wallac Victor plate reader. The assay sensitivity of the assay is 20 pg/ml.
PF4 expression was determined by ELISA (sensitivity of 20 pg/ml).

Regarding `Nc1ncnc2c1ncn2[C@@H]1O[C@H](COP(=O)(O)OP(=O)(O)O)[C@@H](O)[C@H]1O` [ADP, adenosine diphosphate], in the assay with CD62P on platelets [1] (30-minute stimulation with ADP), the “platelets expressing CD62P” value was “greater than 60%”.
With `O=C(O)CN(CCN(CC(=O)O)CC(=O)O)CC(=O)O` [EDTA, Ethylene-diamino-tetra-acetic acid], the “% Positive CD62P” value with CD62P on platelets [2] (setting [9]) was 49 ± 20 %; in the assay on CD62P on platelets [2] (setting [10]) it was 41 ± 4.8 %; in the assay on CD62P on platelets [2] (<4 hr from draw, platelets identified with GPIIIA, average of 5 subjects) it was 37 ± 17 %. Further, the “Mean Intensity CD62P” value in the assay on CD62P on platelets [2] (24 hr from draw) is given as 910 ± 130; in the assay on CD62P on platelets [2] (48 hr from draw) it was 900 ± 60; in the assay with CD62P on platelets [2] (<4 hr from draw) it was 1110 ± 230. In addition, the “range of platelet activation levels observed” value with CD62P on platelets [2] (EDTA samples, all time points) lay within 8 to 50%. Also, the “platelets positive for CD62P” value in the assay with CD62P on platelets [2] (matched samples analyzed over 48 hours) is recorded as 40-50%. Also, the “% Positive CD63” value with CD63 on platelets [3] (setting [9]) amounted to 37 ± 22%; in the assay with CD63 on platelets [3] (setting [10]) it was 15 ± 7.0 %; in the assay with CD63 on platelets [3] (<4 hr from draw, average of 5 subjects), 22 ± 20 %. For the same molecule, the “Mean Intensity CD63” value in the assay on CD63 on platelets [3] (24 hr from draw) was found to be 690 ± 77; in the assay on CD63 on platelets [3] (48 hr from draw) it was 680 ± 42; with CD63 on platelets [3] (<4 hr from draw), 760 ± 43. Besides, the “mean fluorescence intensity of GPIIB, lower in EDTA compared to CTAD” value with platelets [4] (EDTA relative to CTAD) is “about 40%”. Also, in the assay with platelets [4] (between EDTA and CTAD samples), the “differences in expression of pan surface antigens CD9 or GPIIIA on platelets” value is listed as “no observable differences”. In the assay on platelets [5], the “change in total platelet count from 4 to 48 hours” value is reported as “small but significant decrease”. Also, the “PF4 release, times greater in EDTA than in CTAD samples” value in the assay with platelet factor 4 (PF4) (EDTA relative to CTAD, p<0.05) was 5 times. In the assay with platelet factor 4 (PF4) (average of 5 individuals, matched EDTA and CTAD draws), the PF4 in plasma came out at 627 ± 449 pg/mL.
Regarding thrombin, the “Observed CD62P positive platelets” value in the assay on CD62P on platelets [1] (setting [11]) is 192,000 ± 53,000 platelets/μl. In addition, the “expression level of CD63 on platelets after stimulation” value in the assay on CD63 on platelets [6] (five minute stimulation with thrombin) was “greatly increased”. Moreover, in the assay on CD63 on platelets [6] (setting [11]), the “Observed CD63 positive platelets” value is 142,000 ± 40,000 platelets/μl. Also, the “% of total platelets expressing CD63” value in the assay on CD63 on platelets [6] (thrombin activation (5 U/ml, 5 minute), CTAD whole blood) was 72 ± 8.2%. Besides, in the assay on CD62P on platelets [7], the “Expected % CD62P positive” value was >95%. In the assay with CD63 on platelets [8], the “Expected % CD63 positive” value is given as >80%.

Source of the values: US7387880B2, “Method for monitoring resting and activated platelets in unfixed blood samples” (PPD Biomarker Discovery Sciences, LLC, priority 2000, dated 2008).
